Like-named read-outs stand apart in the source and are kept apart here.
Experiments:
[1] = In vitro stability in saline (radio-HPLC radiochemical purity); type: physicochemical; details: 4 h in saline at room temperature
Experimental: (§1) The in vitro stability of the [^99mTc]Tc-CNMCHDG complex was determined by measuring its radiochemical purity. The labeled [^99mTc]Tc-CNMCHDG complex solution was placed in saline at room temperature for 4 h, and the radiochemical purity of the complex was calculated using radio-HPLC data to determine whether the complex had good stability at room temperature. Then, 100 μL of labeled solution (1.8 MBq) and 200 μL of mouse serum were added to a centrifuge tube, and the tube was placed in an incubator at 37 °C for 4 h. At the end of the incubation, 600 μL of an acetonitrile solvent was added to the centrifuge tube. Subsequently, the supernatant was filtered through a 0.22-μm filter and taken for HPLC analysis after centrifugation.

[2] = system: A549 tumor cells; assay: In vitro cellular uptake studies; type: cell-based, Human; details: glucose-free DMEM, 1 h uptake
Experimental: Human alveolar basal epithelial cells from lung cancer cells (A549 cells) were used in in vitro cellular uptake studies. A549 cells in the logarithmic growth phase were collected, prepared in a cell suspension of 3 × 10^5 cells/mL DMEM medium, and seeded into a 24-well plate (1 mL/well). The cells were evenly dispersed in the holes by vibration. Afterwards, the well plate was placed in a 37 °C incubator with 5% CO2 overnight to enable the cells to grow and stick to the bottom of the wells. After the cells were attached to the wells, the medium in the well plate was aspirated and washed with 0.5 mL of glucose-free DMEM medium, followed by the addition of 0.5 mL of glucose-free DMEM for glucose deprivation. One hour later, 0.1 mL of glucose-free medium, D-glucose (2 mg), L-glucose (2 mg) and insulin (2 IU) were added to the wells, respectively, and the cells were preincubated for 15 min. Subsequently, 0.1 mL of [^99mTc]Tc-CNMCHDG complex solution (0.74 MBq) was added to each well, and the volume of the solution in the wells was made up to 1 mL using the glucose-free DMEM. The well plates continued to be incubated in a 37 °C incubator, and after 1 h, the medium was aspirated and washed twice with 0.5 mL of cold PBS solution (0.067 M, pH 7.4). The cells were lysed by adding 0.5 mL of a sodium hydroxide solution (1 M). Finally, the solution was transferred to plastic test tubes, and the radioactivity counts were measured using a γ-counter detector. This procedure was carried out four times for each group.

[3] = Determination of the partition coefficient (log P); type: physicochemical; details: n-octanol / phosphate buffer (0.025 M, pH 7.4)
Experimental: To determine the partition coefficient, 1.4 mL of phosphate buffer (0.025 M, pH 7.4) and 1.5 mL of n-octanol was taken into a 5 mL centrifuge tube, to which 0.1 mL of the [^99mTc]Tc-CNMCHDG solution (2.4 MBq) was added into the centrifuge tube in turn. The solution was then vortexed for 3 min and centrifuged for 3 min (3000 r/min). Then, 0.1 mL was removed from the two phases with a pipette gun, respectively, and the radioactive counts of the two phases were measured and used to calculate the partition coefficient P. The final partition coefficient was expressed as log P ± SD.

[4] = In vitro stability in mouse serum (radio-HPLC radiochemical purity); type: in vitro ADME; details: 4 h in mouse serum at 37 °C
Experimental: as §1

[5] = system: S180 tumor-bearing mice; assay: Biodistribution in S180 tumor-bearing mice with pre-treatment (uptake mechanism); type: in vivo, female Kunming mice
Experimental: (§2) Animal studies were performed according to the Regulation on Laboratory Animals of the Beijing Municipality and the guidelines of the Ethics Committee of Beijing Normal University (permit no. BNUCC-EAW-2022-001). The A549 tumor-bearing model mice were developed by injecting 2 × 10^6 A549 cells in 0.1 mL of F-12k medium subcutaneously into the armpit of the right upper limb of balb/c nude mice. Similarly, the S180 tumor-bearing model mice were developed by subcutaneously injecting 1 × 10^6 S180 cells in 0.1 mL of saline into the right upper limb of female Kunming mice. The biodistribution of the tumor-bearing mice was determined when the tumor grew to approximately 5 mm after about two weeks of feeding. The A549 tumor mice were injected with 0.1 mL of the radiolabeled [^99mTc]Tc-CNMCHDG or [^99mTc]Tc-CN7DG solution (0.37 MBq) through the tail vein and sacrificed after 30 and 120 min post-injection (n = 3). In addition, to test whether the [^99mTc]Tc-CNMCHDG complex was involved in the glucose transporter mechanism, saline (0.1 mL), 2-deoxy-D-glucose (6 mg per mouse) and insulin (0.25 units per mouse) were injected into S180 tumor mice half an hour before administering the radiolabeled complex, and the mice were sacrificed at 60 min post-injection (n = 5). The organs and tissues of interest, such as heart, liver, lung, kidney, spleen, stomach, bone, intestine and tumor, were dissected, wiped and weighed. Finally, the radioactivity count in these organs and tissues was measured using a γ-counter detector, and the final results were expressed as the percent uptake of injected dose per gram ± the standard deviation (%ID/g ± SD).

[6] = Pharmacokinetic characteristics (blood time-activity); type: in vivo; details: healthy Kunming female mice
Experimental: Drug and Statistics (DAS) 3.2.8 software was used to calculate the pharmacokinetic parameters and to study the relationship between drug concentration and time based on the results. Time-activity curve of blood of [^99mTc]Tc-CNMCHDG in healthy kunming female mice was shown in Figure 6 and major pharmacokinetics parameters are listed in Table 1. […] In addition, the blood intake values were all lower than 0.1%ID/g at 90 min post-injection. According to the calculation results of the DAS 3.2.8 software, the distribution of [^99mTc]Tc-CNMCHDG in the blood was in accordance with the three-compartment mode.
Forty Kunming female mice were divided into eight groups and injected with 0.1 mL of [^99mTc]Tc-CNMCHDG (0.37 MBq) via tail vein, and were sacrificed at 2, 5, 10, 30, 60, 90, 120 and 240 min after injection, respectively. The blood samples were collected, weighed and counted a γ-counter detector to calculate the%ID/g value. The blood uptake-time curves were generated and analyzed by DAS 3.2.8 software.

[7] = system: A549 tumor-bearing mice; assay: Biodistribution in A549 tumor-bearing mice; type: in vivo, balb/c nude mice; details: for tumor uptake: i.v., n = 3
Experimental: as §2

[8] = system: A549 tumor-bearing mice; assay: SPECT/CT imaging studies; type: in vivo
Experimental: The radiolabeled [^99mTc]Tc-CNMCHDG solution (18.5 MBq) was injected into the A549 tumor-bearing mice via the tail vein, and the SPECT imaging study was performed at 2 h post-injection. In the same tumor mice, at the end of radioactive metabolism, the [^99mTc]Tc-CN7DG solution (18.5 MBq) was injected similarly into the same mice through the tail vein. The mice were anesthetized with 1.5% isoflurane and placed on a SPECT/CT scanner for imaging. The imaging scan settings were as follows: CT scan (512 views, 2 × 2 binding, 75 kV) for 15 min, followed by SPECT acquisition (Peak 140 keV, 20% width, 90° rotation, MMP 919 collimator) after 4 min. HiSPECT software and Vivoquant 2.5 software (Trifoil imaging, CA, USA) were used to acquire the SPECT/CT images (n = 3).

[9] = S180 tumor-bearing mice, 60 min post-injection
[10] = blood, three-compartmental modeling (DAS 3.2.8), i.v.
[11] = blood, three-compartmental modeling, i.v.

radiochemical purity after incubation [1]: higher than 90% | partition coefficient (log P) [3]: −3.65 ± 0.10 | radiochemical purity after incubation [4]: higher than 90% | tumor uptake [5]: 6.30 ± 0.56 %ID/g | tumor uptake ([5]; S180 tumor-bearing mice, 60 min post-injection, pre-treatment with D-glucose, n = 5): 2.64 ± 0.48 %ID/g | tumor uptake ([5]; S180 tumor-bearing mice, 60 min post-injection, saline pre-treatment (control), n = 5): 4.66 ± 0.34 %ID/g | AUC(0-t) [6, 10]: 298.528 %ID/g × min | AUC(0-∞) [6, 10]: 353.484 %ID/g × min | t1/2α (blood distribution half-life) [6, 11]: 0.598 min | t1/2β (elimination half-life, fast chamber) [6, 11]: 10.706 min | t1/2γ (elimination half-life, slow chamber) [6, 11]: 218.932 min | blood uptake value ([6]; 2 min post-injection, i.v., n = 5): 21.22 ± 2.00 %ID/g | blood uptake value ([6]; 30 min post-injection): 1.50 ± 0.15 %ID/g | blood uptake value ([6]; 60 min post-injection): 0.37 ± 0.16 %ID/g | blood intake values ([6]; at 90 min post-injection): lower than 0.1 %ID/g | kidney uptake ([7]; 30 min post-injection): 6.54 ± 1.10 %ID/g | liver uptake ([7]; 30 min post-injection): 2.74 ± 0.31 %ID/g | lung uptake ([7]; 30 min post-injection): 1.98 ± 0.31 %ID/g | tumor uptake ([7]; 30 min post-injection): 5.40 ± 0.29 %ID/g | tumor uptake compared to [^99mTc]Tc-CN7DG ([7]; 120 min post-injection): slightly lower | tumor/liver ratio ([7]; 120 min post-injection): 3.24 ± 0.25 | tumor/lung ratio ([7]; 120 min post-injection): 5.41 ± 0.39 | uptake in non-target organs such as liver and lung compared to [^99mTc]Tc-CN7DG ([7]; 120 min post-injection): significantly lower | tumor uptake ([7]; 120 min post-injection): 4.42 ± 0.36 %ID/g | SPECT/CT uptake in non-target areas (liver and kidney) compared to [^99mTc]Tc-CN7DG ([8]; same A549 tumor-bearing mouse, 2 h post-injection): significantly lower
Structure (SMILES): O=C(NC1C(O)OC(CO)C(O)C1O)C1CCC(C[N+]#[C][99Tc+]([C]#[N+]CC2CCC(C(=O)NC3C(O)OC(CO)C(O)C3O)CC2)([C]#[N+]CC2CCC(C(=O)NC3C(O)OC(CO)C(O)C3O)CC2)([C]#[N+]CC2CCC(C(=O)NC3C(O)OC(CO)C(O)C3O)CC2)([C]#[N+]CC2CCC(C(=O)NC3C(O)OC(CO)C(O)C3O)CC2)[C]#[N+]CC2CCC(C(=O)NC3C(O)OC(CO)C(O)C3O)CC2)CC1 (centres unmarked) [[^99mTc]Tc-CNMCHDG]
inhibition of cellular uptake by D-glucose ([2]; D-glucose (2 mg) preincubated 15 min, p = 0.009): 29% | change of cellular uptake by L-glucose ([2]; L-glucose (2 mg) preincubated 15 min): not significantly changed | increase of cellular uptake after insulin ([2]; insulin (2 IU) preincubated 15 min, p = 0.002): 57% | decrease of tumor uptake by D-glucose pre-treatment [5, 9]: 43% | increase of tumor uptake by insulin pre-treatment [5, 9]: 35% | route of metabolism/excretion in vivo (SPECT/CT signals in bladder and kidney) ([8]; A549 tumor-bearing mouse, 2 h after administration): mainly metabolized through the urine system | visualization of the tumor by SPECT/CT ([8]; A549 tumor-bearing mouse, 2 h after administration, 18.5 MBq i.v.): clearly visualized
